From patent US10377647B2, “Systems and methods for use of water with switchable ionic strength” (Queen's University at Kingson, priority 2010, dated 2019)
Like-named read-outs stand apart in the source and are kept apart here.

How the values were obtained:
[1] = Miscibility of diamines and triamines with water before and after CO2; assay type: physicochemical; settings: 5:1 w/w water:additive; for miscibility with water After addition of CO2: CO2 90 min; for miscibility with water Before addition of CO2: room temperature
Protocol: A 5:1 w/w solution of water and the liquid additive (total volume 5 mL) were mixed together in a glass vial at room temperature. Whether the mixture formed one or two liquid phases was visually observed. Then CO2 was bubbled through the mixture via a single narrow gauge steel needle at a flow rate of ˜5 mL min^−1 for 90 min. Whether the mixture formed one or two phases was visually observed.

[2] = assay type: physicochemical
Protocol: Specifically, a 1:1:1 (v/v/v) mixture of DBU, water and compound was added to a six dram vial containing a magnetic stirrer and fitted with a rubber septa. […] A second narrow gauge steel needle was inserted to allow venting of the gaseous phase.
When the compound was THF, a single phase miscible liquid mixture was observed.

[3] = Solution conductivity before and after CO2; assay type: physicochemical
Protocol: The solution conductivities of the materials given below were measured. The mass of each material indicated was weighed into a 150 mL beaker charged with a stir bar along with 100 mL of ultra pure water. The solutions were stirred until visibly dissolved and their conductivity measured. […] All solutions were left to stir overnight to test reproducibility. Solution conductivities were re-recorded giving little change in values. CO2 was bubbled at 10 psi through a fine glass frit tube (to make bubble size as small as possible for greater surface area and therefore faster carbonation) with each solution for 30 minutes. In the case of TBAB and functionalized PMMA, significant amounts of bubbling were observed. Solution conductivities were re-recorded.

[4] = Reversible protonation monitored by conductivity, fritted glass apparatus; assay type: physicochemical
Protocol: 1:1 v/v solutions of the various additives and distilled, deionised water were prepared in six dram glass vials and transferred to a fritted glass apparatus which acted as a reaction vessel. The fritted glass apparatus consisted of a long narrow glass tube leading to a fine glass frit having a diameter of approximately 4 cm. The other end of the glass frit was connected to a cylindrical glass tube which held the solution of the additive during contacting with the trigger gas. This apparatus allowed a multiple source of trigger gas bubbles to contact the solution, compared to the single point source of Example 5.
A trigger gas chosen from CO2, air or nitrogen was bubbled through the solution via the glass frit at a flow rate of 110 mL min^−1 as measured by a J&W Scientific ADM 2000 Intelligent Flowmeter (CA, USA). For each conductivity measurement, the solution was transferred back to a six dram vial, cooled to 298 K and measured in triplicate. Conductivity measurements were performed using a Jenway 470 Conductivity Meter (Bibby Scientific, NJ, US) having a cell constant of 1.02 cm^−1.

[5] = Degree of protonation of methylated spermine by carbonated water, 1H NMR; assay type: physicochemical; settings: 0.1 M in D2O, room temperature, CO2
From the text: (§1) The spectrum was then acquired.
(§2) This process was repeated.

[6] = 4 M solution; cited from earlier work
[7] = Viscosity with and without CO2 (capillary viscometer); assay type: physicochemical; settings: 104.6 mg in 10 mL H2O
Protocol: In order to study the use of switchable water additives in a method and system for viscosity control, a switchable additive or other molecule of interest was placed in a 50 mL round-bottom flask equipped with a 1 cm magnetic stir-bar and placed on a stir-plate. […] The solution was then transferred in to a Technical Glass Products, Inc. C. F. Opage viscometer with either a 100 or 200 capillary tube. The measurements were taken at room temperature (i.e., from about 15-30° C.) and repeated twice. The solution was transferred back into the round bottom flask and CO2 was introduced to the mixture by bubbling for 30 minutes at a flow rate of 80 ml/min. The carbonated solution was then put into the viscometer and the viscosity was measured three times. The viscosity in centistokes (cS) was calculated from the times the solution took to run through the viscometer.

[8] = Switchable osmotic pressure (Zimm-Meyerson osmometer, hydrostatic pressure); assay type: physicochemical
Protocol: The switchable osmotic pressure measurements were conducted on a Zimm-Meyerson osmometer using Sterlitech UTC-80LB toray flat sheet membranes. A 0.1% (w/v) switchable polyamine solution in water was made by dissolving 20 mg of the corresponding polyamine in 20 mL deionized H2O. […] The system was closed with a lid and allowed to reach equilibrium overnight. Measurements of the capillary tube and the control capillary were taken. The draw solution was then taken out of the cell and transferred into a graduated cylinder. Both the draw solution and the solution of the outer cell were carbonated by bubbling CO2 with a gas dispersion tube for 1 h. The draw solution was transferred back into the glass cell of the osmometer, the system was closed and held under an atmosphere of CO2. A constant flow of CO2 was maintained using two gauche needles, one of them connected to a CO2 source with a flow rate of 10 ml/min. The heights taken were height differences of the capillary tube connected to the cell and the control capillary tube. Based on these heights the hydrostatic pressure was calculated using the equation: Π=ρhg where Π is the hydrostatic pressure, ρ is the density of the solution, h is the height of the water column and g is the force of gravity. Hydrostatic pressure is taken to be proportional to osmotic pressure of the solution at equilibrium.

[9] = Degree of protonation by CO2 in D2O by 1H NMR; assay type: physicochemical; settings: 0.1 M in D2O
From the text: as §1, §2

[10] = Zeta potential of suspended clay particles; assay type: physicochemical
Protocol: (§3) Clay fines were weighed and placed into individual vials (0.025 g, Ward's Natural Science Establishment). Kaolinite and montmorillonite were used as received, but illite clay was ground into a powder using a mortar and pestle. Solutions containing additives were made with deionized water (18.2 MΩ/cm, Millipore) and 10 mL was added to the clay fines. A suspension was created using a vortex mixer and subsequently dispensed into a folded capillary cell. The zeta potential was measured using a Malvern Zetasizer instrument. The errors reported on the zeta potential values were the standard deviations of the zeta potential peaks measured.
(§4) Unless specified, all carbon dioxide treatments were conducted with the aqueous solutions prior to addition to the clay fines. For applicable measurements, ultra pure carbon dioxide (Supercritical CO2 Chromatographic Grade, Paxair) was bubbled through the solutions using a syringe.

[11] = Zeta potential of suspended clay particles; assay type: physicochemical; settings: for Zeta Potential: kaolinite clay
Protocol: as §3, §4
Another experiment was performed in which CO2 was bubbled through a 1 mM aqueous solution of TMDAB that already contained clay fines (a method referred to as “switching in situ”).

[12] = pH of 5% (w/v) kaolinite suspensions; assay type: physicochemical
Protocol: The pH of the following 5% (w/v) kaolinite suspensions were measured: CO2 blank and 1 mM TMDAB and 10 mM TMDAB after CO2-treatment. To investigate the effect of pH on suspension settling behaviour, 5% (w/v) kaolinite suspensions were prepared, and the pH of each suspension was adjusted with HCl and NaOH to match the pH of corresponding treatment conditions. To investigate the effect of ionic strength on suspension settling behaviour, pH was again corrected to match the pH of corresponding treatment conditions, and ionic strength was adjusted with NaCl or ammonium sulphate, assuming all basic sites on the diamine were protonated.

[13] = 1 mM TMDAB + 1 h CO2 + […] N2 at 70° C.

SMILES: CN(C)Cc1cc(CN(C)C)cc(CN(C)C)c1 [1,3,5-C6H3(CH2NMe2)3, N,N,N′,N′,N″,N″-1,3,5-benzenetrimethanamine]
- miscibility with water After addition of CO2 [1]: miscible
- miscibility with water Before addition of CO2 [1]: miscible

SMILES: CN(C)CC1CC(CN(C)C)CC(CN(C)C)C1 (stereo not shown) [CHTDMA, 1,1′,1″-(cyclohexane-1,3,5-triyl)tris(N,N-dimethylmethanamine)]
- miscibility with water After addition of CO2 [1]: miscible
- miscibility with water Before addition of CO2 [1]: immiscible

SMILES: C1CCC2=NCCCN2CC1 [DBU, 1,8-diazabicyclo-[5.4.0]-undec-7-ene]
- solubility of non-ionic amidine form in water [2]: soluble in water

SMILES: CN(C)CCCN [H2N(CH2)3NMe2, 3-dimethylamino-1-propylamine]
- C after 30 mins CO2 ([3]; CO2 bubbled at 10 psi, 30 minutes): 3360 μS/cm
- Initial C ([3]; mass as listed in 100 mL ultra pure water): 398 μS/cm

SMILES: CN(C)CCN(C)CCN(C)CCN(C)C [HMTETA, 1,1,4,7,10,10-hexamethyl triethylenetetramine]
- conductivity of ionic form solution after N2 flushing ([4]; 1:1 v/v H2O:amine, N2 at 80° C., after 20 minutes): close to zero

SMILES: CN(C)CCCN(C)CCCCN(C)CCCN(C)C [MeSpe, N^1,N^1′-(butane-1,4-diyl)bis(N^1,N^3,N^3-trimethylpropane-1,3-diamine)]
- degree of protonation [5]: 93%

SMILES: [Cl-].[Cl-].[Mg+2] [MgCl2]
- osmotic pressure [6]: 800 atm

SMILES: CN(C)C1CCCCC1 [N,N-dimethylcyclohexylamine]
- viscosity without CO2 [7]: 1.0 cS
- viscosity with CO2 ([7]; CO2 30 minutes): 1.0 cS
- hydrostatic pressure without CO2 ([8]; control experiments, height before CO2 treatment): 580 Pa
- hydrostatic pressure with CO2 ([8]; nominal 0.1% (w/v), carbonated 1 h, CO2 atmosphere): 1550 Pa
- pressure increase ([8]; ratio with CO2 / without CO2): 2.7

SMILES: CCCN(CC)CCCCN(CC)CCC [N,N′-diethyl-N,N′-dipropyl-1,4-diaminobutane]
- miscibility with water After addition of CO2 [1]: miscible
- miscibility with water Before addition of CO2 [1]: immiscible

SMILES: CCCN(CCC)CCCCN(CCC)CCC [Pr2NCH2CH2CH2CH2NPr2, N,N,N′,N′-tetrapropyl-1,4-diaminobutane]
- miscibility with water After addition of CO2 [1]: immiscible
- miscibility with water Before addition of CO2 [1]: immiscible

SMILES: CCN(CC)CCCCN(CC)CC [TEDAB, N,N,N′,N′-tetraethyl-1,4-diaminobutane]
- miscibility with water After addition of CO2 [1]: miscible
- miscibility with water Before addition of CO2 [1]: immiscible

SMILES: OCCN(CCO)CCN(CCO)CCO [THEED, N,N,N′,N′-tetrakis(2-hydroxyethyl) ethylenediamine]
- % deprotonated ([9]; 2 hours N2 bubbling at 75° C.): 98%
- % protonation ([9]; by 10 minutes CO2): 49%

SMILES: CN(C)CCCCN(C)C [TMDAB, N,N,N′,N′-tetramethyl-1,4-diaminobutane]
- reduction of conductivity ([4]; 1:1 v/v H2O:amine switched with CO2, 90 minutes at 80° C., N2 through glass frit): approximately 95%
- Zeta Potential ([10]; 1 mM additive + […] CO2, illite clay): −4.69 ± 4.23 mV
- Zeta Potential ([10]; 1 mM additive + […] CO2, montmorillonite clay): −3.20 ± 4.61 mV
- Zeta Potential ([10]; 1 mM additive, illite clay): −39.5 ± 6.32 mV
- Zeta Potential ([10]; 1 mM additive, montmorillonite clay): −40.2 ± 6.87 mV
- Zeta Potential ([10]; 10 mM additive + […] CO2, illite clay): −3.12 ± 7.16 mV
- Zeta Potential ([10]; 10 mM additive + […] CO2, montmorillonite clay): 9.07 ± 4.18 mV
- Zeta Potential ([10]; 10 mM additive, illite clay): −48.2 ± 7.44 mV
- Zeta Potential ([10]; 10 mM additive, montmorillonite clay): −23.6 ± 5.68 mV
- Zeta Potential ([10]; 0.8 molal additive + 1 h CO2, illite clay): −4.56 mV
- Zeta Potential ([10]; 0.8 molal additive + 1 h CO2, montmorillonite clay): −5.52 mV
- Zeta Potential ([10]; 0.8 molal additive, illite clay): −26.0 ± 3.92 mV
- Zeta Potential ([10]; 0.8 molal additive, montmorillonite clay): −25.8 ± 4.14 mV
- Zeta Potential, Switching externally ([11]; 1 mM TMDAB): −39.6 ± 6.68 mV
- Zeta Potential, Switching in situ ([11]; 1 mM TMDAB): −38.9 ± 8.69 mV
- Zeta Potential, Switching externally ([11]; 1 mM TMDAB + 1 h CO2): −5.03 ± 4.46 mV
- Zeta Potential, Switching in situ ([11]; 1 mM TMDAB + 1 h CO2): −0.31 ± 4.15 mV
- Zeta Potential, Switching externally [11, 13]: −25.0 ± 5.84 mV
- Zeta Potential, Switching in situ [11, 13]: −32.5 ± 6.38 mV
- Zeta Potential ([11]; 1 mM additive + […] CO2): −5.03 ± 4.46 mV
- Zeta Potential ([11]; 1 mM additive): −39.6 ± 6.68 mV
- Zeta Potential ([11]; 10 mM additive + […] CO2): −3.35 ± 8.49 mV
- Zeta Potential ([11]; 10 mM additive): −50.7 ± 13.1 mV
- Zeta Potential ([11]; 0.8 molal additive + 1 h CO2): 2.29 mV
- Zeta Potential ([11]; 0.8 molal additive): −17.4 ± 3.92 mV
- pH ([12]; kaolinite Sample 2, 1 mM TMDAB): 7.13
- pH ([12]; kaolinite Sample 2, 1 mM TMDAB + CO2): 4.75
- pH ([12]; kaolinite Sample 2, 10 mM TMDAB): 10.41
- pH ([12]; kaolinite Sample 2, 10 mM TMDAB + CO2): 5.95

SMILES: CCCC[N+](CCCC)(CCCC)CCCC.[Br-] [[^nBu4N]Br, Tetra-n-butylammonium bromide]
- C after 30 mins CO2 [3]: 1781 μS/cm
- Initial C [3]: 1892 μS/cm

SMILES: OC[C@H]1O[C@@](CO)(O[C@H]2O[C@H](CO)[C@@H](O)[C@H](O)[C@H]2O)[C@@H](O)[C@@H]1O [sucrose]
- osmotic pressure [6]: about 130 atm
